Measured values as given in patent US20080255368A1, “Tgf-ß Gene Expression Inhibitor” (Nihon University, priority 2004, published 2008).

Assays:
TGF-β1 messenger RNA = assay: Inhibition of expression of TGF-β1 messenger RNA in PMA-stimulated human mesangium cells (RT-PCR); assay type: cell-based; settings: 12 hours serum-free; for inhibition of expression of TGFβ1 gene: 1×10^−6 M polyamide, 1×10^−6 M PMA stimulation, corrected with 18S
Description: (6) Reverse Transcription-Polymerase Chain Reaction (RT-PCR) Assay for RNA Extraction and Growth Factor mRNA
The cultured cells were washed with PBS, dissolved in 1,000 μL of Trizol (Invitrogen), mixed with 100 μL of chloroform, and centrifuged, and an upper aqueous phase thereof was mixed with an equal volume of isopropanol to precipitate RNA. The resulting RNA pellet was washed twice with 500 μL of 75% ethanol, dried, and dissolved in 10 μL of TE buffer solution. The RNA sample was denatured for 15 minutes at 65° C., and treated at room temperature for 45 minutes with 0.5 U of DNase (Gibco) in 0.5 ml of DNase buffer solution (20 mM Tris-HCl pH 8.3, 50 mM KCl, 2.5 mM MgCl2. The DNase was inactivated by adding 0.5 mL of 0.5 M EDTA and heating at 98° C. for 10 minutes.
An equal volume of RNA (1 μg/20 μL) was reverse-transcribed into single-stranded cDNA by 2.5 U/20 μL of avian myeloblastoma virus reverse transcriptase (Takara Biochemicals, Osaka, Japan) in 10 mM Tris-HCl (pH 8.3), 5 mM MgCl2, 50 mM KCl, 1 mM deoxy-NTPs, and 2.5 μM random hexamer. Then, 2 μL of the diluted cDNA product was mixed with 10 mM Tris-HCl (pH 8.3), 50 mM KCl, 4 mM MgCl2, 0.025 U/μL Taq DNA polymerase (Takara Biochemicals, Osaka, Japan), and 0.2 μM each of upstream sense primer and downstream antisense primer in a final volume of 25 μL. The sense primer (5′-[…]-3′) (SEQ ID NO: 7) and the antisense primer (5′-[…]-3′) (SEQ ID NO: 8) were used for PCR amplification of hTGF-β1 mRNA. A sense primer (5′-[…]-3′) (SEQ ID NO: 9) and an antisense primer (5′-[…]-3′) (SEQ ID NO:. 10) to human 18S ribosomal RNA were used as an internal control. PCR was performed by a Thermal Cycler (Perkin Elmer, Foster, Calif.). […] For semi-quantitative analysis of mRNA, the numbers of cycles whereby PCR products were detectable on gels were compared among various samples. cDNAs by successively 10 times dilutions (100, 10, and 1 ng) were amplified. […]

[1] = system: double-stranded oligonucleotides corresponding to base pairs of an hTGF-β1 promoter; assay: Gel shift assay of Py-Im polyamide-oligonucleotide complexes; assay type: binding, human; settings: 11-base double-stranded DNA containing the target sequence, compared with lanes with DS only, FIG. 3
Description: Oligonucleotides were synthesized and annealed, and thereby 12 types of double-stranded oligonucleotides corresponding to base pairs of an hTGF-β1 promoter were prepared. A double-strand DNA was labeled with [γ-^32P]-ATP by T4 polynucleotide kinase. The labeled double-stranded DNA was then incubated for 15 minutes at 37° C. with a polyamide or a mismatch polyamide in a binding buffer solution (40 mM Tris, pH 7.9, 250 mM NaCl, 25 mM EDTA, 25 mM DTT, 100 mM KCl). The obtained complexes were separated by electrophoresis on 20% polyacrylamide gels and visualized by autoradiography.
The binding to target sequences of GB1105 and GBP1106 was examined by gel shift assay. Sense and antisense oligonucleotide having 11 bases containing each target sequence of Py-Im polyamide were prepared, annealed to prepare a double-stranded DNA to the target site, and incubated with each Py-Im polyamide. The obtained products were electrophoresed with polyacrylamide gel and the binding between Py-Im and the target sequence was examined.

| binding to target sequence (migration of double-stranded DNA in gel shift) [1] | Compound | increase of expression of TGFβ1 gene (TGF-β1 messenger RNA; 1×10^−6 M of PMA stimulation, human mesangium cells) [%] | inhibition of expression of TGFβ1 gene (TGF-β1 messenger RNA) |
| --- | --- | --- | --- |
| – | CCCCCCCCCCCCCC(=O)O[C@@H]1[C@@H](C)[C@@]2(O)[C@@H](C=C(CO)C[C@]3(O)C(=O)C(C)=C[C@@H]23)[C@@H]2C(C)(C)[C@]12OC(C)=O [PMA, 12-o-tetradecanoylpholbol-13-acetate, reference compound] | 20 | – |
| decreased the migration degree | CC(=O)Nc1cn(C)c(C(=O)Nc2cc(C(=O)Nc3cn(C)c(C(=O)NCCC(=O)Nc4cc(C(=O)Nc5cc(C(=O)Nc6cc(C(=O)NCCCC(=O)Nc7cn(C)c(C(=O)Nc8cc(C(=O)Nc9cn(C)c(C(=O)NCCC(=O)Nc%10cc(C(=O)Nc%11cc(C(=O)Nc%12cc(C(=O)NCCC(=O)NCCCN(C)C)n(C)c%12)n(C)c%11)n(C)c%10)n9)n(C)c8)n7)n(C)c6)n(C)c5)n(C)c4)n3)n(C)c2)n1 [GBP1106] | – | up to 50% |
| decreased the migration degree | CNCCCNC(=O)CCNC(=O)c1cc(NC(=O)c2cc(NC(=O)CCNC(=O)c3cc(NC(=O)c4cc(NC(=O)c5cc(NC(=O)CCCNC(=O)c6nc(NC(=O)c7cc(NC(=O)c8nc(NC(=O)CCNC(=O)c9nc(NC(=O)c%10nc(NC(C)=O)cn%10C)cn9C)cn8C)cn7C)cn6C)cn5C)cn4C)cn3C)cn2C)cn1C [GBP1105] | – | up to 50% |
